Assay type in all cases: cell-based
Test [1] deals with adenosine 2a receptor (Homo sapiens, UniProt P29274). As to the kind of experiment: Agonist activity against adenosine 2a receptor (CHO cells, cAMP/SPAP reporter). Conditions: CHO cells transfected with human receptor; basal cAMP via SPAP; mean of all the versions tested. How it is done: (§1) (1) Agonist activity against adenosine 2a, adenosine 1 and adenosine 3 receptor subtypes.
(§2) The effect of test compounds was determined by their effects on basal levels of cAMP (A2a) or on forskolin-enhanced cAMP (A1 and A3) as reflected by changes in levels of SPAP.

Test [2] concerns the target T1, adenosine 1 receptor (Homo sapiens, UniProt P30542).
T1 sequence (P30542 1-326): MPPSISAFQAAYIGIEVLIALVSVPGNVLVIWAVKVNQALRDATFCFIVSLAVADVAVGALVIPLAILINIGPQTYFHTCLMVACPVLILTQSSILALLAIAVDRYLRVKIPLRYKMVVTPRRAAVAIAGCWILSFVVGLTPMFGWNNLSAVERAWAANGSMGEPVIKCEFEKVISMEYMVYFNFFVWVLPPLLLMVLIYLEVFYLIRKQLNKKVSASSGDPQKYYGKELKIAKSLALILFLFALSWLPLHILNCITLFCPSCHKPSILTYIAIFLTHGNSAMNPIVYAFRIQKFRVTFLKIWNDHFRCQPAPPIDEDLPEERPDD
As to the kind of experiment: Agonist activity against adenosine 1 receptor (CHO cells, forskolin-enhanced cAMP/SPAP reporter). Conditions: CHO cells transfected with human receptor; forskolin-enhanced cAMP via SPAP; mean of all the versions tested. As for the experimental part: as §1, §2

In test [3] the target is T2, adenosine 3 receptor (Homo sapiens, UniProt P0DMS8).
T2 sequence (P0DMS8 1-318): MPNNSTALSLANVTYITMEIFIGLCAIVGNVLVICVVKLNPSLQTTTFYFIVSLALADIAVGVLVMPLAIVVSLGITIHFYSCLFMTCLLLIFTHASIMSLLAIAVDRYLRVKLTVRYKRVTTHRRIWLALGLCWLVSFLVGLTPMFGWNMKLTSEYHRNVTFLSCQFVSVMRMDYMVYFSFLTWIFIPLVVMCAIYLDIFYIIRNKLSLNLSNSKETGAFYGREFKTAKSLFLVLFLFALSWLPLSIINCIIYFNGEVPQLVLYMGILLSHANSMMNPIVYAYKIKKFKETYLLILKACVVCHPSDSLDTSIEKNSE
As to the kind of experiment: Agonist activity against adenosine 3 receptor (CHO cells, forskolin-enhanced cAMP/SPAP reporter). The following applies: CHO cells transfected with human receptor; forskolin-enhanced cAMP via SPAP; mean of all the versions tested. How it is done:
as §1, §2

Where a name gives a salt, the structure may show the parent alone. Where only a bound is given, the exact number is not on record here.

Sequence of adenosine 2a receptor (P29274 whole entry): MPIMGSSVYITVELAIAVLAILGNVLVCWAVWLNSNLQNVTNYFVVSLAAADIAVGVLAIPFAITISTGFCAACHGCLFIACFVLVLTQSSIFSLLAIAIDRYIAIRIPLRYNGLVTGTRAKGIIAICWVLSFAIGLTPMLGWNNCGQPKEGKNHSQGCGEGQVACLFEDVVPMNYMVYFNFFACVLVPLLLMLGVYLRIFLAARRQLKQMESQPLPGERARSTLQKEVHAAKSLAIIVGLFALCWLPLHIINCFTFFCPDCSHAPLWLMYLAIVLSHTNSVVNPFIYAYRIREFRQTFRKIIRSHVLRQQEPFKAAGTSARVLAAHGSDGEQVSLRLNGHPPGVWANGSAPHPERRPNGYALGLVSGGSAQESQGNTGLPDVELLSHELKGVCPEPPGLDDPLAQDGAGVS

Take `CC(C)n1nnc([C@H]2O[C@@H](n3cnc4c(NCc5ccccc5)nc(NCCc5cn(C)cn5)nc43)[C@H](O)[C@@H]2O)n1.O=CO` [Example 58, (2R,3R,4S,5R)-2-{6-Benzylamino-2-[2-(1-methyl-1H-imidazol-4-yl)-ethylamino]-purin-9-yl}-5-(2-isopropyl-2H-tetrazol-5-yl)-tetrahydro-furan-3,4-diol Formate]: the “A2a EC50 as a ratio of that of NECA” value in test [1] worked out at 6.07. In test [2], the “A1 EC50 as a ratio of that of NECA” value was 1119.00. For the same compound, in test [3], the “A3 EC50 as a ratio of that of NECA” value was greater than 515.
In the same order, the values of `CC(C)C(CO)Nc1nc(NCC(c2ccccc2)c2ccccc2)c2ncn(C3OC(c4nnn(C)n4)C(O)C3O)c2n1` [Example 99, (2R,3R,4S,5R)-2-[6-(2,2-Diphenyl-ethylamino)-2-(1S-hydroxymethyl-2-methyl-propylamino)-purin-9-yl]-5-(2-methyl-2H-tetrazol-5-yl)-tetrahydro-furan-3,4-diol Formate] are 4.82, 87.00 and greater than 130.
The like results for `CCn1nnc(C2OC(n3cnc4c(NCCc5ccccc5)nc(NC(CO)Cc5ccccc5)nc43)C(O)C2O)n1` [Example 79, (2R,3S,4R,5R)-2-(2-Ethyl-2H-tetrazol-5-yl)-5-[2-(1S-hydroxymethyl-2-phenyl-ethylamino)-6-phenethylamino-purin-9-yl]-tetrahydro-furan-3,4-diol Formate] were, in that order, 2.40, 165.30 and greater than 155.
The like results for `CCn1nnc([C@H]2O[C@@H](n3cnc4c(N)nc(NCCc5cn(C)cn5)nc43)[C@H](O)[C@@H]2O)n1.O=CO` [Example 54, (2R,3R,4S,5R)-2-{6-Amino-2-[2-(1-methyl-1H-imidazol-4-yl)-ethylamino]-purin-9-yl}-5-(2-ethyl-2H-tetrazol-5-yl)-tetrahydro-furan-3,4-diol Formate] were, in that order, 1.16, 267.60 and greater than 175.
On to `CCn1nnc([C@H]2O[C@@H](n3cnc4c(NCc5cccc(I)c5)nc(NCCN5CCOCC5)nc43)[C@H](O)[C@@H]2O)n1` [Example 48, (2R,3S,4R,5R)-2-(2-Ethyl-2H-tetrazol-5-yl)-5-[6-(3-iodo-benzylamino)-2-(2-morpholin-4-yl-ethylamino)-purin-9-yl]-tetrahydro-furan-3,4-diol], for which, in test [1], the “A2a EC50 as a ratio of that of NECA” value worked out at 4.12. In addition, in test [2], the “A1 EC50 as a ratio of that of NECA” value worked out at 102.00. Besides, the “A3 EC50 as a ratio of that of NECA” value in test [3] is recorded as greater than 181.
In the same order, the values of `Cn1nnc(C2OC(n3cnc4c(NCC(c5ccccc5)c5ccccc5)nc(NC5CCC(N)CC5)nc43)C(O)C2O)n1.O=CO.O=CO` [Example 93, (2R,3R,4S,5R)-2-[2-(trans-4-Amino-cyclohexylamino)-6-(2,2-diphenyl-ethylamino)-purin-9-yl]-5-(2-methyl-2H-tetrazol-5-yl)-tetrahydro-furan-3,4-diol Diformate] are 5.07, 922.00 and greater than 153.
Consider `Cn1cnc(CCNc2nc(NCCc3ccccc3)c3ncn([C@@H]4O[C@H](c5nnn(C)n5)[C@@H](O)[C@H]4O)c3n2)c1.O=CO` [Example 34, (2R,3R,4S,5R)-2-{2-[2-(1-Methyl-1H-imidazol-4-yl)-ethylamino]-6-phenethylamino-purin-9-yl}-5-(2-methyl-2H-tetrazol-5-yl)-tetrahydro-furan-3,4-diol Formate], for which the “A2a EC50 as a ratio of that of NECA” value in test [1] worked out at 0.13. In addition, the “A1 EC50 as a ratio of that of NECA” value in test [2] was found to be 1316. Moreover, the “A3 EC50 as a ratio of that of NECA” value in test [3] is greater than 173.
With `Cn1cnc(CCNc2nc(NCCC3CCCCC3)c3ncn([C@@H]4O[C@H](c5nnn(C)n5)[C@@H](O)[C@H]4O)c3n2)c1.O=CO` [Example 31, (2R,3R,4S,5R)-2-{6-(2-Cyclohexyl-ethylamino)-2-[2-(1-methyl-1H-imidazol-4-yl)-ethylamino]-purin-9-yl}-5-(2-methyl-2H-tetrazol-5-yl)-tetrahydro-furan-3,4-diol Formate], the “A2a EC50 as a ratio of that of NECA” value in test [1] is 0.49. Further, the “A1 EC50 as a ratio of that of NECA” value in test [2] was “>=3680”. The “A3 EC50 as a ratio of that of NECA” value in test [3] is recorded as greater than 100.
In the same order, the values of `CCn1nnc([C@H]2O[C@@H](n3cnc4c(NCC(c5ccccc5)c5ccccc5)nc(NC5CCNC5)nc43)[C@H](O)[C@@H]2O)n1.O=C(O)C(F)(F)F.O=C(O)C(F)(F)F.O=C(O)C(F)(F)F` (stereo partly drawn) [Example 2, (2R,3R,4S,5R)-2-[6-(2,2-Diphenyl-ethylamino)-2-(pyrrolidin-3-ylamino)-purin-9-yl]-5-(2-ethyl-2H-tetrazol-5-yl)-tetrahydro-furan-3,4-diol tris(Trifluoroacetate)] are 0.92, 123.6 and greater than 216.
In the same order, the values of `CCn1nnc([C@H]2O[C@@H](n3cnc4c(N)nc(Nc5ccc(F)cc5)nc43)[C@H](O)[C@@H]2O)n1.O=C(O)C(F)(F)F` [Example 13, (2R,3R,4S,5R)-2-[6-Amino-2-(4-fluoro-phenylamino)-purin-9-yl]-5-(2-ethyl-2H-tetrazol-5-yl)-tetrahydro-furan-3,4-diol Trifluoroacetate] are 0.64, 266.9 and greater than 232.
For `CCn1nnc([C@H]2O[C@@H](n3cnc4c(NCC(c5ccccc5)c5ccccc5)nc(NCCN5CCOCC5)nc43)[C@H](O)[C@@H]2O)n1.O=C(O)C(F)(F)F.O=C(O)C(F)(F)F.O=C(O)C(F)(F)F` [Example 44, (2R,3R,4S,5R)-2-[6-(2,2-Diphenyl-ethylamino)-2-(2-morpholin-4-yl-ethylamino)-purin-9-yl]-5-(2-ethyl-2H-tetrazol-5-yl)-tetrahydro-furan-3,4-diol tris(Trifluoroacetate)], the “A2a EC50 as a ratio of that of NECA” value in test [1] worked out at 3.25. Further, the “A1 EC50 as a ratio of that of NECA” value in test [2] worked out at 44.11. Also, the “A3 EC50 as a ratio of that of NECA” value in test [3] was greater than 546.
In the same order, the values of `Cn1nnc(C2OC(n3cnc4c(N)nc(NC(CO)Cc5ccccc5)nc43)C(O)C2O)n1` [Example 37, (2R,3R,4S,5R)-2-[6-Amino-2-(1S-hydroxymethyl-2-phenyl-ethylamino)-purin-9-yl]-5-(2-methyl-2H-tetrazol-5-yl)-tetrahydro-furan-3,4-diol Formate] are 0.52, 119.1 and greater than 348.
In the same order, the values of “(2R,3R,4S,5R)-2-[6-(1-Ethyl-propylamino)-2-(2-piperidin-1-yl-ethylamino)-purin-9-yl]-5-(2-methyl-2H-tetrazol-5-yl)-tetrahydro-furan-3,4-diol Diformate [Example 24]” are 0.36, greater than 4798 and greater than 157.
The like results for `Cn1cnc(CCNc2nc(NC(CO)Cc3ccccc3)c3ncn(C4OC(c5nnn(C)n5)C(O)C4O)c3n2)c1` [Example 32, (2R,3R,4S,5R)-2-{6-(1S-Hydroxymethyl-2-phenyl-ethylamino)-2-[2-(1-methyl-1H-imidazol-4-yl)-ethylamino]-purin-9-yl}-5-(2-methyl-2H-tetrazol-5-yl)-tetrahydro-furan-3,4-diol Formate] were, in that order, 0.026, 56.2 and greater than 100.
As for `Cn1nnc(C2OC(n3cnc4c(NCC(c5ccccc5)c5ccccc5)nc(NC(CO)Cc5ccccc5)nc43)C(O)C2O)n1` [Example 95, (2R,3R,4S,5R)-2-[6-(2,2-Diphenyl-ethylamino)-2-(1S-hydroxymethyl-2-phenyl-ethylamino)-purin-9-yl]-5-(2-methyl-2H-tetrazol-5-yl)-tetrahydro-furan-3,4-diol Formate], the “A2a EC50 as a ratio of that of NECA” value in test [1] is 2.10. In test [2], the “A1 EC50 as a ratio of that of NECA” value is given as 4687.00. Besides, the “A3 EC50 as a ratio of that of NECA” value in test [3] is listed as greater than 153.
On to `CCn1nnc([C@H]2O[C@@H](n3cnc4c(NCc5ccccc5)nc(NCCc5cn(C)cn5)nc43)[C@H](O)[C@@H]2O)n1` [Example 5, (2R,3R,4S,5R)-2-{6-Benzylamino-2-[2-(1-methyl-1H-imidazol-4-yl)-ethylamino]-purin-9-yl}-5-(2-ethyl-2H-tetrazol-5-yl)-tetrahydro-furan-3,4-diol], for which the “A2a EC50 as a ratio of that of NECA” value in test [1] was 0.76. In test [2], the “A1 EC50 as a ratio of that of NECA” value worked out at 700.4. The “A3 EC50 as a ratio of that of NECA” value in test [3] is listed as greater than 181.
